Among the data in paper PMC9516332 (Frontiers in Oncology, 2022) are inhibition values, retold here.

Common to all, as to test: Kinase panel profiling at 1 µmol/L (MSA or IMAP), percentage inhibition
Holding throughout (format): biochemical

The target in experiment [1] is panel of 255 wild-type kinases (Homo sapiens, UniProt P05771). The note with it: kinase PKCβ1; 1 µmol/L single concentration; read-out: %-inhibition at 1 µmol/L, PKCβ1.
Experiment [2] deals with panel of 255 wild-type kinases (Homo sapiens, UniProt P14616). As to conditions: kinase IRR; 1 µmol/L single concentration; read-out: %-inhibition at 1 µmol/L, IRR.
The target of experiment [3] is panel of 255 wild-type kinases (Homo sapiens, UniProt Q8IY84). The note with it: NIM1K; 1 µmol/L single concentration; read-out: %-inhibition, NIM1K.
Experiment [4] concerns the target panel of 255 wild-type kinases (Homo sapiens, UniProt O60674). As to conditions: kinase JAK2; 1 µmol/L single concentration; read-out: %-inhibition at 1 µmol/L, JAK2.
Experiment [5] addresses panel of 255 wild-type kinases (Homo sapiens, UniProt Q08345). As to conditions: kinase DDR1; 1 µmol/L single concentration; read-out: %-inhibition at 1 µmol/L, DDR1.
In experiment [6] the target is panel of 255 wild-type kinases (Homo sapiens, UniProt Q13164). As to conditions: kinase Erk5; 1 µmol/L single concentration; read-out: %-inhibition at 1 µmol/L, Erk5.
Experiment [7] has as its target T1, panel of 255 wild-type kinases (Homo sapiens, UniProt O60285).
T1 sequence (O60285 1-661): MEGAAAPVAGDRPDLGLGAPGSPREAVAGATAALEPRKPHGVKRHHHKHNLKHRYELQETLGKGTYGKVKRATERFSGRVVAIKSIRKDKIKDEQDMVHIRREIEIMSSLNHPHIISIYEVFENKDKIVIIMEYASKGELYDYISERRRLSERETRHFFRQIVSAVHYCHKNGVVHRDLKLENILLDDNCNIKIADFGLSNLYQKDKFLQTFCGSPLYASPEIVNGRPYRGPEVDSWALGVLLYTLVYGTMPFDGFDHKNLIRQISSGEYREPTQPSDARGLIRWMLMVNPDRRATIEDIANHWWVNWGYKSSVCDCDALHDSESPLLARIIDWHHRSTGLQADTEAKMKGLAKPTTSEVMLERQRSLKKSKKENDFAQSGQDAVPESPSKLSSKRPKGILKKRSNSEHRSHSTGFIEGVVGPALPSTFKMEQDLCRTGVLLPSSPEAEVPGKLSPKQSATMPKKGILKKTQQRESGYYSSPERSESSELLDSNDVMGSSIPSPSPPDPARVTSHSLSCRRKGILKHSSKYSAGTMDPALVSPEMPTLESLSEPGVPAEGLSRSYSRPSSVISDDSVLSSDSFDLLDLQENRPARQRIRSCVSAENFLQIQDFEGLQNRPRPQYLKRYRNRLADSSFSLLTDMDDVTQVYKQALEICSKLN
As to conditions: NuaK1; 1 µmol/L single concentration; read-out: %-inhibition, NuaK1.

In experiment [8] the target is T2, panel of 255 wild-type kinases (Homo sapiens, UniProt Q96PN8).
T2 sequence (Q96PN8 1-268): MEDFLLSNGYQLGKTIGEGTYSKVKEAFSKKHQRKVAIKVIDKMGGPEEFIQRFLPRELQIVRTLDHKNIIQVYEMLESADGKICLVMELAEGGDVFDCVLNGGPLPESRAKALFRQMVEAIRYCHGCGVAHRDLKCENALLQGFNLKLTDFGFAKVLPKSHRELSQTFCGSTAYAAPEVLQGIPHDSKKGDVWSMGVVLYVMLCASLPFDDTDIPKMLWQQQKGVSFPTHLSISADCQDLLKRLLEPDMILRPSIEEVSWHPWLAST
The note with it: kinase TSSK3; 1 µmol/L single concentration; read-out: %-inhibition at 1 µmol/L, TSSK3.

In experiment [9] the target is panel of 255 wild-type kinases (Homo sapiens, UniProt Q13554). As to conditions: CaMK2β kinase assay; 1 µmol/L single concentration; read-out: %-inhibition CaMK2β.
In experiment [10] the target is T3, panel of 255 wild-type kinases (Homo sapiens, UniProt P21709).
T3 sequence (P21709 26-976): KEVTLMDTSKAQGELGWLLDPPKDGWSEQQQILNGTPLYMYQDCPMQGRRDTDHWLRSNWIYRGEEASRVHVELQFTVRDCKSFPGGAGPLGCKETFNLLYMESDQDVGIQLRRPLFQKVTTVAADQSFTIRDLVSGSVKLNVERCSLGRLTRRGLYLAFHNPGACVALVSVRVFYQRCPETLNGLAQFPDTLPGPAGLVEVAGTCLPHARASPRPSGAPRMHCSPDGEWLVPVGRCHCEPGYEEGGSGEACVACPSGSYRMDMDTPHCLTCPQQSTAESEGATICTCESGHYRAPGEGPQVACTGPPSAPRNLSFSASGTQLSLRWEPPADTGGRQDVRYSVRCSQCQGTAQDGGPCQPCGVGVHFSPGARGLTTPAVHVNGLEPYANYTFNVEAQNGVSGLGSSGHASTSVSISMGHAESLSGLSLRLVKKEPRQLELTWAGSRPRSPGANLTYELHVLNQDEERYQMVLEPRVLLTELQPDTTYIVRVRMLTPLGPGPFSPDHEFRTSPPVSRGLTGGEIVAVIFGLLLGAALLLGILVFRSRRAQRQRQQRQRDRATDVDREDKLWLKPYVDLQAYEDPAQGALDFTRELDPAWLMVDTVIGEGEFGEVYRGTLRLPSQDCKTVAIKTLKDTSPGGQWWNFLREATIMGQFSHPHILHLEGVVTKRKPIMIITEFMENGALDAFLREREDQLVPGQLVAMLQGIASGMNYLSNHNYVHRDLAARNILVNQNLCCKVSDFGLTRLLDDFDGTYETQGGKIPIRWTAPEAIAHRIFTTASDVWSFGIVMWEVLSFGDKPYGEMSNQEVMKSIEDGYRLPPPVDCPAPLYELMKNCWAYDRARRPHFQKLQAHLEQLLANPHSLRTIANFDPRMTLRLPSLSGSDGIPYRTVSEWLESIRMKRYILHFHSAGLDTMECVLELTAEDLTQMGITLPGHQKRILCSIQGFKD
The note with it: kinase EPHA1; 1 µmol/L single concentration; read-out: %-inhibition at 1 µmol/L, EPHA1.

The target in experiment [11] is panel of 255 wild-type kinases (Homo sapiens, UniProt Q9Y3S1). As to conditions: kinase WNK2; 1 µmol/L single concentration; read-out: %-inhibition at 1 µmol/L, WNK2.
Experiment [12] has as its target panel of 255 wild-type kinases (Homo sapiens, UniProt O43683). As to conditions: BUB1/BUB3 kinase assay; 1 µmol/L single concentration; read-out: %-inhibition BUB1/BUB3.

Structures are written as SMILES.

With `COc1ccc(CN2C3CC2CN(c2ccc(-c4cc(OCC(C)(C)O)cn5ncc(C#N)c45)cn2)C3)cn1` [selpercatinib], the inhibition at 1 µM in experiment [1] was -0.445%; in experiment [2], 3%; in experiment [3] it was -2%; in experiment [4] it was 27%; in experiment [5], 89%; in experiment [6], 4%. Also, the inhibition at 1 µM is 10% in experiment [7]; -4% in experiment [8]; 1.27% in experiment [9]; 79% in experiment [10]; -2.37% in experiment [11]; 19% in experiment [12].

For `Cn1cnc2c(F)c(Nc3ccc(Br)cc3Cl)c(C(=O)NOCCO)cc21` [selumetinib], the inhibition at 1 µM is 2.44% in [1]; 2.15% in experiment [2]; -0.385% in experiment [3]; -0.0152% in experiment [4]; 4.73% in [5]; 2.36% in experiment [6]. Also, the inhibition at 1 µM in experiment [7] was 6%; in experiment [8], -3%; in experiment [9], -0.923%; in experiment [10] it was -2.25%; in [11], -4%; in experiment [12], -4%.

With `Cc1cc(Nc2ncnc3ccc(NC4=NC(C)(C)CO4)cc23)ccc1Oc1ccn2ncnc2c1` [tucatinib], the inhibition at 1 µM in [1] was 0.869%; in experiment [2], 3%; in experiment [3], 1.49%; in experiment [4], 4.51%; in experiment [5] it was 9%; in [6] it was -1.07%. Also, the inhibition at 1 µM in [7] was 9%; in experiment [8], -0.029%; in experiment [9], 1.33%; in [10], 21%; in [11], 0.536%; in [12], 0.842%.

With `C=CC(=O)N1CCC([C@@H]2CCNc3c(C(N)=O)c(-c4ccc(Oc5ccccc5)cc4)nn32)CC1` [zanubrutinib], the inhibition at 1 µM was 0.363% in [1]; 2.69% in experiment [2]; -1.66% in experiment [3]; -0.375% in experiment [4]; 3% in experiment [5]; 3.76% in experiment [6]. For the same molecule, the inhibition at 1 µM was -7% in [7]; 0.315% in [8]; 2.44% in [9]; -0.68% in experiment [10]; 2% in experiment [11]; -6% in [12].
